# Data from patent US9597314B2, “Beta-lactamylalkanoic acids for treating premenstrual disorders” (AZEVAN PHARMACEUTICALS, INC., priority 2005, dated 2017).
# Target: V1a (Homo sapiens, UniProt P37288)
# Assay: Human vasopression V1a receptor binding assay
# Parameters: host or cells: CHO cells (hV1a cell line), whole adherent cells
# Conditions: hV1a cell line (CHO); for IC50: 1 nM 3H-AVP, Table 17, read-out: V1a Binding Affinity (IC50 (nM)); for Ki: Table 18
# Description: Human vasopression V1a receptor binding assay. A cell line expressing the human V1a receptor in CHO cells (henceforth referred to as the hV1a cell line) was obtained from Dr. Michael Brownstein, NIMH, Bethesda, Md., USA. The hV1a cDNA sequence is described by Thibonnier et al., Journal of Biological Chemistry, 269, 3304-3310 (1994), and the expression method was the same as described by Morel et al. (1992). The hV1a cell line was grown in alpha-MEM with 10% fetal bovine serum and 250 ug/ml G418 (Gibco, Grand Island, N.Y., USA). For competitive binding assay, hV1a cells were plated into 6-well culture plate at 1:10 dilution from a confluency flask, and maintained in culture for at least two days. Culture medium was then removed, cells were washed with 2 ml binding buffer (25 mM Hepes, 0.25% BSA, 1×DMEM, PH=7.0). To each well, 990 μl binding buffer containing 1 nM 3H-AVP was added, and followed by 10 μl series diluted Example compounds dissolved in DMSO. […] 100 nM cold AVP (Sigma) was used to assess non-specific binding. Cells were incubated for 45 minutes at 37° C., assay mixture was removed and each well was washed three times with PBS (pH=7.4). 1 ml 2% SDS was added per well and plates were let sit for 30 minutes. The whole content in a well was transferred to a scintillation vial. Each well was rinsed with 0.5 ml PBS which was then added to the corresponding vial. Scintillation fluid (Ecoscint, National Diagnostics, Atlanta, Ga.) was then added at 3 ml per vial. Samples were counted in a liquid scintillation counter (Beckman LS3801). IC50 values were calculated by Prism Curve fitting software.
# All of the alkanedioic esters and amides exemplified in the foregoing examples dissolved in DMSO were tested in this assay. Binding curves were generated according to methods described by Thibonnier et al. (1994). [^3H]-AVP was added to the hV1a cell cultures followed by 10 fold dilutions of each test compound.
# Sequence of V1a (P37288 whole entry): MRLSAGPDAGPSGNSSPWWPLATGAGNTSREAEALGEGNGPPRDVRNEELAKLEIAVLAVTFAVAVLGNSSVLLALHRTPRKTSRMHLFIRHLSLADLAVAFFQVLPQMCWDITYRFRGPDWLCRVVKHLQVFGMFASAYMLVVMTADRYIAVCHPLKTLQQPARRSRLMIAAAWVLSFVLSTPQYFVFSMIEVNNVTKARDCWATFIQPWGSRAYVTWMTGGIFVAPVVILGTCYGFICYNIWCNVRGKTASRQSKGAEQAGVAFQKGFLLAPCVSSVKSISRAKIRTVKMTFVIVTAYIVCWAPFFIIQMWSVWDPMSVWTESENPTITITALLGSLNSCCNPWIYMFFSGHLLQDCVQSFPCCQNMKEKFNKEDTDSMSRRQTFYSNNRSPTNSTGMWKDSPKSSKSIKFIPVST
Compound,IC50,Ki
CC(C)(NC(=O)[C@@H](CC(=O)N1CCC(N2CCCCC2)CC1)N1C(=O)[C@@H](N2C(=O)OC[C@@H]2c2ccccc2)[C@H]1/C=C/c1ccccc1)c1ccccc1 [Example 134J],5.29 nM,3.25 nM
"COc1ccccc1C=CC1C(N2C(=O)OCC2c2ccccc2)C(=O)N1C(CC(=O)N1CCC(N2CCCCC2)CC1)C(=O)NCc1cccc(C(F)(F)F)c1 [Example 231, 2(R)-[[4-(Piperidinyl)piperidinyl]carbonylmethyl]-2-[3(S)-(4(S)-phenyloxazolidin-2-on-3-yl)-4(R)-(2′-methoxystyr-2-yl)azetidin-2-on-1-yl]acetic acid N-(3-trifluoromethylbenzyl)amide]",6.12 nM,3.75 nM
O=C(NCc1cccc(C(F)(F)F)c1)C(C(=O)NC1CCN(Cc2ccccc2)CC1)N1C(=O)[C@@H](N2C(=O)OC[C@@H]2c2ccccc2)[C@H]1/C=C/c1ccccc1 (mixture of isomers) [Example 39],,13.3 nM
Cc1ccc(C2(NC(=O)[C@H](CCC(=O)N3CCN(C4CCCCC4)CC3)N3C(=O)[C@@H](N4C(=O)OC[C@@H]4c4ccccc4)[C@H]3/C=C/c3ccccc3)CCCC2)cc1 [Example 221AS],~20 nM,
O=C(NCc1cccc(C(F)(F)F)c1)[C@H](CCC(=O)N1CCN(Cc2ccc3c(c2)OCO3)CC1)N1C(=O)[C@@H](N2C(=O)OC[C@@H]2c2ccccc2)[C@H]1/C=C/c1ccccc1 [Example 96],,2.66 nM
O=C(NCc1cccc(C(F)(F)F)c1)C(C(=O)N1CCN(CCc2ccccc2)CC1)N1C(=O)[C@@H](N2C(=O)OC[C@@H]2c2ccccc2)[C@H]1/C=C/c1ccccc1 (mixture of isomers) [Example 38],,85 nM
CCCCN1CCN(C(=O)C(C(=O)NCc2cccc(C(F)(F)F)c2)N2C(=O)[C@@H](N3C(=O)OC[C@@H]3c3ccccc3)[C@H]2/C=C/c2ccccc2)CC1 (mixture of isomers) [Example 40],,6.5 nM
CN(Cc1ccccc1)C(=O)[C@H](CCC(=O)N1CCN(C2CCCCC2)CC1)N1C(=O)[C@@H](N2C(=O)OC[C@@H]2c2ccccc2)[C@H]1/C=C/c1ccccc1 [Example 196],< 100 nM,
O=C(NC1(c2ccccc2)CCCCC1)[C@H](CCC(=O)N1CCN(C2CCCCC2)CC1)N1C(=O)[C@@H](N2C(=O)OC[C@@H]2c2ccccc2)[C@H]1/C=C/c1ccccc1 [Example 221G],1.5 nM,0.93 nM
O=C(NC(CCO)c1ccccc1)[C@H](CCC(=O)N1CCN(C2CCCCC2)CC1)N1C(=O)[C@@H](N2C(=O)OC[C@@H]2c2ccccc2)[C@H]1/C=C/c1ccccc1 (stereo partly drawn) [Example 221Q],18.1 nM,11.1 nM
O=C([C@@H](COCc1ccccc1)N1C(=O)[C@@H](N2C(=O)OC[C@@H]2c2ccccc2)[C@H]1/C=C/c1ccccc1)N1CCC(N2CCCCC2)CC1 [Example 232],1.37 nM,0.84 nM
CCCCN1CCN(C(=O)CC[C@@H](C(=O)NCc2cccc(C(F)(F)F)c2)N2C(=O)[C@@H](N3C(=O)OC[C@@H]3c3ccccc3)[C@H]2/C(Cl)=C/c2ccccc2)CC1 [Example 229],1.53 nM,0.94 nM
Cc1ccc(C2(NC(=O)[C@H](CCC(=O)N3CCN(C4CCCCC4)CC3)N3C(=O)[C@@H](N4C(=O)OC[C@@H]4c4ccccc4)[C@H]3/C=C/c3ccccc3)CC2)cc1 [Example 221AP],,3.8 nM
O=C(C[C@@H](C(=O)NCc1cccc(C(F)(F)F)c1)N1C(=O)[C@@H](N2C(=O)OC[C@@H]2c2ccccc2)[C@H]1/C=C/c1ccccc1)NC1CCN(Cc2ccccc2)CC1 [Example 63],,1.13 nM
"O=C(NCc1cccc(C(F)(F)F)c1)[C@H](CCC(=O)N1CCN(C2CCCCC2)CC1)N1C(=O)[C@@H](N2C(=O)OC[C@@H]2c2ccccc2)[C@H]1CCc1ccccc1 [Example 236, (2S)-[(4-cyclohexylpiperazinyl)carbonylethyl]-2-[3(S)-(4(S)-phenyloxazolidin-2-on-3-yl)-4(R)-(2-phenyleth-1-yl)azetidin-2-on-1-yl]acetic acid N-(3-trifluoromethylbenzyl)amide]",1.68 nM,1.03 nM
O=C(NC1(c2ccccc2)CCCC1)[C@H](CCC(=O)N1CCN(C2CCCCC2)CC1)N1C(=O)[C@@H](N2C(=O)OC[C@@H]2c2ccccc2)[C@H]1/C=C/c1ccccc1 [Example 217],3.17 nM,1.94 nM
O=C(NCc1cccc(C(F)(F)F)c1)[C@@H](CC(=O)N1CCC(CCN2CCCCC2)CC1)N1C(=O)[C@@H](N2C(=O)OC[C@@H]2c2ccccc2)[C@H]1/C=C/c1ccccc1 [Example 134A],12.9 nM,7.9 nM
O=C(NCc1cccc(C(F)(F)F)c1)[C@H](CC(=O)N1CCCN(Cc2ccccc2)CC1)N1C(=O)[C@@H](N2C(=O)OC[C@@H]2c2ccccc2)[C@H]1/C=C/c1ccccc1 [Example 82],,5.12 nM
"CC(C)N1CCN(C(=O)CCC(C(=O)NCc2cccc(C(F)(F)F)c2)N2C(=O)C(N3C(=O)OCC3c3ccccc3)C2C=Cc2ccccc2)CC1 (single isomer, unassigned) [Example 104]",,1.13 nM
CCCCN1CCN(C(=O)CC[C@@H](C(=O)NCc2cccc(C(F)(F)F)c2)N2C(=O)[C@@H](N3C(=O)OC[C@@H]3c3ccccc3)[C@H]2/C=C/c2ccccc2)CC1 [Example 221AB],< 10 nM,
O=C(CC[C@@H](C(=O)N[C@@H]1CCCc2ccccc21)N1C(=O)[C@@H](N2C(=O)OC[C@@H]2c2ccccc2)[C@H]1/C=C/c1ccccc1)NC1CN2CCC1CC2 (stereo partly drawn) [Example 221AE],~50 nM,
O=C(CC[C@@H](C(=O)N[C@@H]1CCCc2ccccc21)N1C(=O)[C@@H](N2C(=O)OC[C@@H]2c2ccccc2)[C@H]1/C=C/c1ccccc1)NCCN1CCCCC1 [Example 221X],11.6 nM,7.2 nM
O=C(N[C@@H]1CCCc2ccccc21)[C@H](CCC(=O)N1CCC[C@H]1CN1CCCC1)N1C(=O)[C@@H](N2C(=O)OC[C@@H]2c2ccccc2)[C@H]1/C=C/c1ccccc1 [Example 221Y],7.6 nM,4.7 nM

# Results, then the compound that gave them:
IC50,Ki,Compound
4.56 nM,2.79 nM,O=C(NCc1cc(Cl)ccc1Cl)[C@H](CCC(=O)N1CCN(C2CCCCC2)CC1)N1C(=O)[C@@H](N2C(=O)OC[C@@H]2c2ccccc2)[C@H]1/C=C/c1ccccc1 [Example 175]
16.3 nM,10 nM,O=C(NCc1ccccn1)[C@H](CCC(=O)N1CCN(C2CCCCC2)CC1)N1C(=O)[C@@H](N2C(=O)OC[C@@H]2c2ccccc2)[C@H]1/C=C/c1ccccc1 [Example 208]
1.17 nM,0.72 nM,Cc1cccc(CNC(=O)[C@H](CCC(=O)N2CCN(C3CCCCC3)CC2)N2C(=O)[C@@H](N3C(=O)OC[C@@H]3c3ccccc3)[C@H]2/C=C/c2ccccc2)c1 [Example 193]
5.3 nM,3.26 nM,COc1ccccc1CNC(=O)[C@H](CCC(=O)N1CCN(C2CCCCC2)CC1)N1C(=O)[C@@H](N2C(=O)OC[C@@H]2c2ccccc2)[C@H]1/C=C/c1ccccc1 [Example 220]
5.37 nM,3.29 nM,O=C(NCc1ccco1)[C@H](CCC(=O)N1CCN(C2CCCCC2)CC1)N1C(=O)[C@@H](N2C(=O)OC[C@@H]2c2ccccc2)[C@H]1/C=C/c1ccccc1 [Example 211]
1.27 nM,,O=C(NCc1cc(F)cc(F)c1)[C@H](CCC(=O)N1CCN(C2CCCCC2)CC1)N1C(=O)[C@@H](N2C(=O)OC[C@@H]2c2ccccc2)[C@H]1/C=C/c1ccccc1 [Example 185]
< 10 nM,,Cc1ccccc1CNC(=O)[C@H](CCC(=O)N1CCN(C2CCCCC2)CC1)N1C(=O)[C@@H](N2C(=O)OC[C@@H]2c2ccccc2)[C@H]1/C=C/c1ccccc1 [Example 192]
~30 nM,,O=C(Nc1cccc2c1CCC2)[C@H](CCC(=O)N1CCN(C2CCCCC2)CC1)N1C(=O)[C@@H](N2C(=O)OC[C@@H]2c2ccccc2)[C@H]1/C=C/c1ccccc1 [Example 221AY]
,5.84 nM,O=C(NCc1cccc(C(F)(F)F)c1)[C@@H](CCC(=O)N1CCN(C2CCCCC2)CC1)N1C(=O)[C@@H](N2C(=O)OC[C@@H]2c2ccccc2)[C@H]1/C=C/c1ccccc1 [Example 139]
20.2 nM,12.4 nM,CN(Cc1cc(Cl)cc(Cl)c1)C(=O)[C@H](CCC(=O)N1CCN(C2CCCCC2)CC1)N1C(=O)[C@@H](N2C(=O)OC[C@@H]2c2ccccc2)[C@H]1/C=C/c1ccccc1 [Example 221E]
0.67 nM,,O=C(NCc1cc(C(F)(F)F)ccc1F)[C@H](CCC(=O)N1CCN(C2CCCCC2)CC1)N1C(=O)[C@@H](N2C(=O)OC[C@@H]2c2ccccc2)[C@H]1/C=C/c1ccccc1 [Example 177]
< 10 nM,,COc1cccc(CNC(=O)[C@H](CCC(=O)N2CCN(C3CCCCC3)CC2)N2C(=O)[C@@H](N3C(=O)OC[C@@H]3c3ccccc3)[C@H]2/C=C/c2ccccc2)c1 [Example 183]
4.5 nM,2.78 nM,O=C(NCc1cccc(OC(F)(F)F)c1)[C@H](CCC(=O)N1CCN(C2CCCCC2)CC1)N1C(=O)[C@@H](N2C(=O)OC[C@@H]2c2ccccc2)[C@H]1/C=C/c1ccccc1 [Example 172]
